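Grown in 96-well plates, cells were treated for 48 hours with each compound at five concentrations. Insufficient inhibition: endpoint recorded as highest concentration tested. Abbreviation: GI50, concentration required for 50% inhibition of growth.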 Calls of active or inactive are those of the source. Cut-off read from the data, not from the text of the source: active = GI50 up to about 1.1 µM and inactive = higher.
Experiments:
Assay in all cases: NCI-60 cell line screen, 48 h
MCF7 = test system: MCF7
HCT-15 = test system: HCT-15
Malme-3M = test system: Malme-3M
A549 = test system: A549
SK-MEL-5 = test system: SK-MEL-5
NCI-H23 = test system: NCI-H23
OVCAR-8 = test system: OVCAR-8
SF-539 = test system: SF-539
A498 = test system: A498
SR = test system: SR
IGROV-1 = test system: IGROV-1
SK-OV-3 = test system: SK-OV-3
CCRF-CEM = test system: CCRF-CEM
NCI-H226 = test system: NCI-H226
NCI-H460 = test system: NCI-H460
HL-60 = test system: HL-60
SN12C = test system: SN12C
SF-268 = test system: SF-268
SNB-19 = test system: SNB-19
MDA-N = test system: MDA-N
786-0 = test system: 786-0
SK-MEL-2 = test system: SK-MEL-2
OVCAR-5 = test system: OVCAR-5
ACHN = test system: ACHN
SK-MEL-28 = test system: SK-MEL-28
SW-620 = test system: SW-620
MOLT-4 = test system: MOLT-4
HCC 2998 = test system: HCC 2998
LOX IMVI = test system: LOX IMVI
T47D = test system: T47D
RPMI-8226 = test system: RPMI-8226
KM12 = test system: KM12
HCT-116 = test system: HCT-116
COLO 205 = test system: COLO 205
PC-3 = test system: PC-3
NCI/ADR-RES = test system: NCI/ADR-RES
HOP-62 = test system: HOP-62
SNB-75 = test system: SNB-75
RXF 393 = test system: RXF 393
SF-295 = test system: SF-295
UO-31 = test system: UO-31
K562 = test system: K562
U-251 = test system: U-251
TK-10 = test system: TK-10

CO/C(=N\N=C\c1cc(OC)ccc1OC)c1ccncc1
GI50 (MCF7): > 10 µM (inactive)
GI50 (HCT-15): > 10 µM
GI50 (Malme-3M): > 10 µM (inactive)
GI50 (A549): > 10 µM (inactive)
GI50 (SK-MEL-5): > 10 µM (inactive)
GI50 (NCI-H23): > 10 µM (inactive)
GI50 (OVCAR-8): > 10 µM (inactive)
GI50 (SF-539): > 10 µM (inactive)
GI50 (A498): > 10 µM (inactive)
GI50 (SR): > 10 µM (inactive)
GI50 (IGROV-1): > 10 µM (inactive)
GI50 (SK-OV-3): > 10 µM (inactive)
GI50 (CCRF-CEM): > 10 µM (inactive)
GI50 (NCI-H226): > 10 µM (inactive)
GI50 (NCI-H460): > 10 µM (inactive)
GI50 (HL-60): > 10 µM (inactive)
GI50 (SN12C): > 10 µM (inactive)
GI50 (SF-268): > 10 µM (inactive)
GI50 (SNB-19): > 10 µM (inactive)
GI50 (MDA-N): > 10 µM (inactive)
GI50 (786-0): > 10 µM (inactive)
GI50 (SK-MEL-2): > 10 µM (inactive)
GI50 (OVCAR-5): > 10 µM (inactive)
GI50 (ACHN): > 10 µM (inactive)
GI50 (SK-MEL-28): > 10 µM (inactive)
GI50 (SW-620): > 10 µM (inactive)
GI50 (MOLT-4): > 10 µM (inactive)
GI50 (HCC 2998): > 10 µM (inactive)
GI50 (LOX IMVI): > 10 µM (inactive)
GI50 (T47D): > 10 µM (inactive)
GI50 (RPMI-8226): > 10 µM (inactive)
GI50 (KM12): > 10 µM (inactive)
GI50 (HCT-116): > 10 µM (inactive)
GI50 (COLO 205): > 10 µM (inactive)
GI50 (PC-3): > 10 µM (inactive)
GI50 (NCI/ADR-RES): > 10 µM (inactive)
GI50 (HOP-62): > 10 µM (inactive)
GI50 (SNB-75): 3.68 µM (inactive)
GI50 (RXF 393): > 10 µM (inactive)
GI50 (SF-295): > 10 µM (inactive)
GI50 (UO-31): > 10 µM (inactive)
GI50 (K562): > 10 µM (inactive)
GI50 (U-251): > 10 µM (inactive)
GI50 (TK-10): > 10 µM (inactive)
